Data as given in patent US20240174690A1, “ANNULATED 2-AMINO-3-CYANO THIOPHENES AND DERIVATIVES FOR THE TREATMENT OF CANCER” (BOEHRINGER INGELHEIM INTERNATIONAL GMBH, priority 2021, published 2024).
Read-outs that look alike come from different tables or passages of the source.

How the values were obtained:
KRAS (G12C)::SOS1 = KRAS (G12C)::SOS1 (Homo sapiens (Human), UniProt P01116, C118S/C51S/C80L/G12C); assay: KRAS::SOS1 AlphaScreen binding assay, KRAS G12C
Outline: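 KRAS 1-169 (biotinylated avi-tag) with GST-SOS1 564-1049 and 10 µM GDP in PBS/0.1% BSA/0.05% Tween 20: WT and G13D 10 nM each with 10 nM SOS1; G12D 10 nM and G12C 7.5 nM with 5 nM SOS1. After 30 min, glutathione acceptor/streptavidin donor beads were added for 60 min at RT in the dark, then AlphaScreen read; 4-parameter IC50.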

NCI-H358 cells = assay: NCI-H358 CTG proliferation assay (120 h) (NSCLC, G12C); format: cell-based, human
Outline: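 NCI-H358 cells (KRAS G12C) were seeded at 2000/well (assay 1) or 200/well (assay 2) in RPMI-1640 + 10% FCS and dosed with a logarithmic series, DMSO-normalized. After 120 h, viability was read by CellTiter-Glo luminescence as percent of DMSO control, with a T0 read at dosing. IC50 came from a four-parameter fit.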

[1] = Homo sapiens, assay 2, CTG, read-out: H358 (assay 2) IC50
[2] = Homo sapiens, assay 1, CTG, read-out: H358 (assay 1) IC50

KRAS (G12C)::SOS1, sequence (P01116 other isoform, or with tags, fused parts or gaps G12C/C51S/C80L/C118S): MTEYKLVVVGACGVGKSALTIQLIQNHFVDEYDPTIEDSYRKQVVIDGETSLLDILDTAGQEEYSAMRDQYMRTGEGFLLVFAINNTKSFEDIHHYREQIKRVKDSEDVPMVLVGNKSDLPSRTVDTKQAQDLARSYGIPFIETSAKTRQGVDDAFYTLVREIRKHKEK

SMILES | IC50 (KRAS (G12C)::SOS1) | IC50 (NCI-H358 cells; [1]) | IC50 (NCI-H358 cells; [2]) | IC50 (NCI-H358 cells; assay 2, CTG, read-out: H358 (assay 2) IC50)
C[C@H](Oc1cc(N2CCOC2=O)nc(-c2noc3c2CCC[C@@]32CCCc3sc(N)c(C#N)c32)n1)[C@@H]1CCCN1C [II-143] | 2 nM |  | 25 nM | 
C[C@H](NC(=O)c1ccn(-c2cc(O[C@@H](C)[C@@H]3CCCN3C)nc(-c3noc4c3CCC[C@@]43CCCc4sc(N)c(C#N)c43)n2)n1)c1ccccn1 [II-191] | 2 nM | 3 nM |  | 
COCCNC(=O)c1ccn(-c2cc(O[C@@H](C)[C@@H]3CCCN3C)nc(-c3noc4c3CCC[C@@]43CCCc4sc(N)c(C#N)c43)n2)n1 [II-195] | 1 nM | 4 nM |  | 
CC(C)N1CCCN(c2cc(-n3ccnc3)nc(-c3noc4c3CCC[C@@]43CCCc4sc(N)c(C#N)c43)n2)[C@@H](C)C1 [II-169] | 3 nM | 595 nM |  | 
C[C@H](Oc1cc(-n2cc3ccn(C4CCOCC4)c(=O)c3n2)nc(-c2noc3c2CCC[C@@]32CCCc3sc(N)c(C#N)c32)n1)[C@@H]1CCCN1C [II-206] | 2 nM | 4 nM |  | 
C[C@H](Oc1nc(-c2noc3c2CCC[C@@]32CCCc3sc(N)c(C#N)c32)nc(N2C[C@H](C)NC3(CC3)C2)c1F)[C@@H]1C[C@@H](F)CN1C [II-157] | 2 nM | 151 nM |  | 
C[C@H](Oc1cc(-n2ccc(C(=O)N[C@H]3CCOC3)n2)nc(-c2noc3c2CCC[C@@]32CCCc3sc(N)c(C#N)c32)n1)[C@@H]1CCCN1C [II-193] | 1 nM |  |  | 1 nM
CO[C@H]1CCN(C)[C@@H]1[C@H](C)Oc1cc(-n2ccc(C(=O)N[C@@H]3CCOC3)n2)nc(-c2noc3c2CCC[C@@]32CCCc3sc(N)c(C#N)c32)n1 [II-197] | 1 nM | 1 nM |  | 
C[C@H](Oc1cc(-c2cccc(C(N)=O)c2)nc(-c2noc3c2CCC[C@@]32CCCc3sc(N)c(C#N)c32)n1)[C@@H]1CCCN1C [II-133] | 2 nM | 9 nM | 74 nM | 
CCN1CCN(c2cc(O[C@@H](C)[C@@H]3C[C@@H](F)CN3C)nc(-c3noc4c3CCC[C@@]43CCCc4sc(N)c(C#N)c43)n2)CC12CC2 [II-185] | 21 nM | 510 nM |  | 
C[C@H](Oc1cc(-n2ccc(-c3cn(CC4(C)COC4)nn3)n2)nc(-c2noc3c2CCC[C@@]32CCCc3sc(N)c(C#N)c32)n1)[C@@H]1CCCN1C [II-213] | 2 nM | 1 nM |  | 
CC(=O)N1CCN(c2cc(O[C@@H](C)[C@@H]3CCCN3C)nc(-c3noc4c3CCC[C@@]43CCCc4sc(N)c(C#N)c43)n2)CC12CC2 [II-178] | 2 nM | 129 nM |  | 
COCCNC(=O)c1ccn(-c2cc(O[C@@H](C)[C@@H]3[C@@H](OC)CCN3C)nc(-c3noc4c3CCC[C@@]43CCCc4sc(N)c(C#N)c43)n2)n1 [II-200] | 1 nM | 3 nM |  | 
C[C@H](Oc1cc(N2CCNC[C@]23CCOC3)nc(-c2onc3c2CCC[C@@]32CCCc3sc(N)c(C#N)c32)n1)[C@@H]1CCCN1C [I-12] | 2 nM | 3120 nM |  | 

Second part, led by results:

IC50 (KRAS (G12C)::SOS1) | IC50 (NCI-H358 cells; [1]) | IC50 (NCI-H358 cells; [2]) | SMILES | IC50 (NCI-H358 cells; assay 2, CTG, read-out: H358 (assay 2) IC50)
2 nM | 230 nM |  | C[C@H](Oc1nc(-c2noc3c2CCC[C@@]32CCCc3sc(N)c(C#N)c32)nc(N2CCNC3(CC3)C2)c1Cl)[C@@H]1C[C@@H](F)CN1C [II-156] | 
1 nM | 1 nM |  | CO[C@H]1CCN(C)[C@@H]1[C@H](C)Oc1cc(-n2ccc(C(=O)N[C@H]3CCOC3)n2)nc(-c2noc3c2CCC[C@@]32CCCc3sc(N)c(C#N)c32)n1 [II-198] | 
2 nM | 2 nM |  | C[C@H](Oc1cc(-n2ccc(-c3cn(C4CCOCC4)nn3)n2)nc(-c2noc3c2CCC[C@@]32CCCc3sc(N)c(C#N)c32)n1)[C@@H]1CCCN1C [II-210] | 
2 nM | 18 nM |  | C[C@H](Oc1cc(-n2cc3ccn([C@@H](C)c4ccccn4)c(=O)c3n2)nc(-c2noc3c2CCC[C@@]32CCCc3sc(N)c(C#N)c32)n1)[C@@H]1CCCN1C [II-205] | 
1 nM | 3 nM |  | C[C@H](Oc1cc(-n2ccc(C(=O)N(C)C3COC3)n2)nc(-c2noc3c2CCC[C@@]32CCCc3sc(N)c(C#N)c32)n1)[C@@H]1CCCN1C [II-194] | 
2 nM | 115 nM |  | C[C@H](Oc1cc(N2CCNC3(COC3)C2)nc(-c2noc3c2CCC[C@@]32CCCc3sc(N)c(C#N)c32)n1)[C@@H]1C[C@@H](F)CN1C [II-150] | 
1 nM | 5 nM |  | C[C@H](Oc1cc(-n2cc3ccn([C@H]4CCOC4)c(=O)c3n2)nc(-c2noc3c2CCC[C@@]32CCCc3sc(N)c(C#N)c32)n1)[C@@H]1CCCN1C [II-202] | 
3 nM | 166 nM |  | C[C@H](Oc1cc(N2CCNC3(CC3)C2)nc(-c2noc3c2CCC[C@@]32CCCc3sc(N)c(C#N)c32)n1)[C@@H]1C[C@@H](F)CN1C [II-165] | 
3 nM | 2850 nM |  | CO[C@@H]1C[C@@H]([C@H](C)Oc2cc(N3CCN(C)C4(COC4)C3)nc(-c3noc4c3CCC[C@@]43CCCc4sc(N)c(C#N)c43)n2)N(C)C1 [II-153] | 
2 nM | 400 nM |  | C[C@H](Oc1cc(-c2ccn([C@H]3CCOC3)n2)nc(-c2noc3c2CCC[C@@]32CCCc3sc(N)c(C#N)c32)n1)[C@@H]1CCCN1C [II-127] | 
2 nM | 1680 nM |  | C[C@H](Oc1cc(-n2cnc(C(=O)N(C)C)c2)nc(-c2noc3c2CCC[C@@]32CCCc3sc(N)c(C#N)c32)n1)[C@@H]1CCCN1C [II-126] | 
7 nM | 926 nM |  | CO[C@@H]1C[C@@H]([C@H](C)Oc2cc(N3CCN(C)C4(CC4)C3)nc(-c3noc4c3CCC[C@@]43CCCc4sc(N)c(C#N)c43)n2)N(C)C1 [II-152] | 
7 nM | 4280 nM |  | C[C@H](Oc1cc(N2CCNC[C@@]23CCOC3)nc(-c2onc3c2CCC[C@@]32CCCc3sc(N)c(C#N)c32)n1)[C@@H]1CCCN1C [I-13] | 
2 nM | 19 nM |  | C[C@H](Oc1cc(-n2ccc(C3(O)COC3)n2)nc(-c2noc3c2CCC[C@@]32CCCc3sc(N)c(C#N)c32)n1)[C@@H]1CCCN1C [II-189] | 
2 nM | 40 nM |  | C[C@H](Oc1cc(C2=CCNCC2)nc(-c2noc3c2CCC[C@@]32CCCc3sc(N)c(C#N)c32)n1)[C@@H]1CCCN1C [II-164] | 
1 nM | 5 nM |  | C[C@H](Oc1cc(-n2cc3ccn(C[C@H]4CCOC4)c(=O)c3n2)nc(-c2noc3c2CCC[C@@]32CCCc3sc(N)c(C#N)c32)n1)[C@@H]1CCCN1C [II-204] | 
2 nM | 417 nM |  | C[C@H](Oc1cc(-c2ccn(Cc3ncco3)n2)nc(-c2noc3c2CCC[C@@]32CCCc3sc(N)c(C#N)c32)n1)[C@@H]1CCCN1C [II-128] | 
